Inconclusive results are not listed. Activity calls are given as the source filed them.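 Rule for the calls: active = score of 100, fluorescent reporter fully moved to nucleus as with estrogen, or estrogen effect fully blocked; inactive = score of 0 or 50, partial or no effect.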

For the assay, the target named is Estrogen receptor (Homo sapiens) (UniProt P03372). Briefly: ERalpha-driven PIP3 reporter nuclear translocation, orthogonal assay for ERalpha ligand project, imaging, Cos7 ERalpha-GFP, PH-RFP reporter (AID 1226). Conditions: at 10 µM, active compounds read high.
Chain of Estrogen receptor (Homo sapiens) (P03372 whole entry, looked up): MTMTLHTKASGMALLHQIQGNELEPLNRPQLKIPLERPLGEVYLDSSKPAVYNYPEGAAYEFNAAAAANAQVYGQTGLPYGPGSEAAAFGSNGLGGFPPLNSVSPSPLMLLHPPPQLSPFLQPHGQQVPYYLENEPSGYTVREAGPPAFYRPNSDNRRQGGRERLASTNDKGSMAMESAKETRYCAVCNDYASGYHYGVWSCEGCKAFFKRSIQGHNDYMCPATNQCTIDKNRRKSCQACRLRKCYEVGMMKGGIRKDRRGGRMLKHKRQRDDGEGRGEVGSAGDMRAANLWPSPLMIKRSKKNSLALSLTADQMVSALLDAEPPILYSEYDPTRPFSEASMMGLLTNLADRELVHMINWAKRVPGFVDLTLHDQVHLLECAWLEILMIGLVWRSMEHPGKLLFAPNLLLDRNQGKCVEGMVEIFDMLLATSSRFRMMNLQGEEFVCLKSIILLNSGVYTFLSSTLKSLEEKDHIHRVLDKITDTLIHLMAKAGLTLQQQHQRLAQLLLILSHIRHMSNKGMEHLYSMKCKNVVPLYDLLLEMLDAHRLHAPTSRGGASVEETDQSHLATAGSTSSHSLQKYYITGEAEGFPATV
As for `Brc1cc2c(cc1C1Nc3ccccc3C3C=CCC31)OCO2` (stereo not drawn), the translocation response score was 0 (inactive).

As to `O=C(O)c1cc(Cl)c2c(c1)[C@@H]1C=CC[C@@H]1[C@H](c1ccc(S(=O)(=O)N3CCOCC3)cc1)N2`, the translocation response score was 50 (inactive). The value for `COc1ccccc1N1CCN(C(=O)c2ccc3nc(-c4ccco4)c(-c4ccco4)nc3c2)CC1` was 50 (inactive); that for `Cc1cc(C)c2c(c1)[C@@H]1C=CC[C@@H]1[C@H](c1ccc(S(=O)(=O)N3CCOCC3)cc1)N2` was 100. The value for `O=C(O)c1ccc2c(c1)C1C(Cl)C(Sc3ccccc3[N+](=O)[O-])CC1C(c1cccc([N+](=O)[O-])c1)N2` (stereo not drawn) was 0 (inactive); that for `Nc1ncnc2c1ncn2C1CCC(CO)C(O)C1` (stereo not drawn) was 100. The result for `Cc1cc(-c2nn3c(-c4ccccc4)nnc3s2)c2ccccc2n1` reads 100; that for `COc1cccc(NS(=O)(=O)c2ccc3c(c2)C2C=CCC2C(c2ccc(C(=O)O)cc2)N3)c1` (stereo not drawn), 50 (inactive).

The record behind these values is PubChem BioAssay AID1226 (NMMLSC, 2008).
